From ChEMBL document CHEMBL3880415, “Spiro (Piperidine-4,2''-Pyrrolidine)-1-(3,5-Trifluoromethyl Phenyl) Methylcarboxamides As NK1 Tachikynin Receptor Antagonists” (2011)

The compounds below were run against Substance-P receptor (Homo sapiens, UniProt P25103) (assay: Antagonist at human NK1 receptor expressed in recombinant BacMam virus infected human U2OS cells assessed as inhibition of substance P-induced intracellular calcium release preincubated for 30 mins followed by substance P addition by Fluo-4 calcium dye-based FLIPR assay). Conditions: not given.
Sequence of Substance-P receptor (P25103 whole entry): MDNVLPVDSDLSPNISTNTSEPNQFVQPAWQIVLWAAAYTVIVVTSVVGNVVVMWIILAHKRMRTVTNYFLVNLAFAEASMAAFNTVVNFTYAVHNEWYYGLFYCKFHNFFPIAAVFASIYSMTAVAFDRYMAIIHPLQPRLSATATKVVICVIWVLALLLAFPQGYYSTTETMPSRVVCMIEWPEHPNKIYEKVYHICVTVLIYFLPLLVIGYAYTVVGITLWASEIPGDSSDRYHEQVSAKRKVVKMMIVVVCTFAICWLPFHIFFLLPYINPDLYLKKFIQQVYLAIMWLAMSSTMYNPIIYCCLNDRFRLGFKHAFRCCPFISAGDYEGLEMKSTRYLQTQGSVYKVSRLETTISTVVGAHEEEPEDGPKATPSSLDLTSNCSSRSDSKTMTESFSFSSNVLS
Format: functional, cell-based

Row | Ki | SMILES
1 | < 1 nM | Cc1cc(F)ccc1[C@H]1C[C@]2(CC[C@H](C(N)=O)N2)CCN1C(=O)N(C)[C@H](C)c1cc(C(F)(F)F)cc(C(F)(F)F)c1
2 | < 1 nM | Cc1cc(F)ccc1[C@H]1C[C@@]2(CCN1C(=O)N(C)[C@H](C)c1cc(C(F)(F)F)cc(C(F)(F)F)c1)CC(C(=O)O)CN2 (stereo not given in full)
3 | < 1 nM | Cc1cc(F)ccc1[C@H]1C[C@]2(CC[C@@H](C(N)=O)N2)CCN1C(=O)N(C)Cc1cc(C(F)(F)F)cc(C(F)(F)F)c1
4 | < 1 nM | Cc1cc(F)ccc1[C@H]1C[C@]2(CC[C@H](C(N)=O)N2)CCN1C(=O)N(C)[C@@H](C)c1cc(C(F)(F)F)cc(C(F)(F)F)c1
5 | < 1 nM | Cc1cc(F)ccc1[C@H]1C[C@]2(CCCN2)CCN1C(=O)N(C)[C@H](C)c1cc(C(F)(F)F)cc(C(F)(F)F)c1
6 | < 1 nM | Cc1cc(F)ccc1[C@H]1C[C@]2(CC[C@@H](C(N)=O)N2)CCN1C(=O)N(C)[C@H](C)c1cc(C(F)(F)F)cc(C(F)(F)F)c1
7 | < 1 nM | Cc1cc(F)ccc1[C@H]1C[C@]2(CC[C@@H](C(N)=O)N2)CCN1C(=O)N(C)[C@@H](C)c1cc(C(F)(F)F)cc(C(F)(F)F)c1
8 | < 1 nM | Cc1cc(F)ccc1[C@H]1C[C@]2(CC[C@H](C(N)=O)N2)CCN1C(=O)N(C)Cc1cc(C(F)(F)F)cc(C(F)(F)F)c1

Row | SMILES | Ki
9 | Cc1cc(F)ccc1[C@H]1C[C@@]2(CCN1C(=O)N(C)[C@H](C)c1cc(C(F)(F)F)cc(C(F)(F)F)c1)NCC[C@@H]2C(=O)O | < 1 nM

Same assay, conditions: u2os

Row | pKi | SMILES
10 | > 9 | Cc1cc(F)ccc1[C@H]1C[C@@]2(CCC(C(N)=O)N2)CCN1C(=O)N(C)[C@H](C)c1cc(C(F)(F)F)cc(C(F)(F)F)c1 (stereo not given in full)
